According to EP0338532A2, “N-alkylamino derivates of aromatic, tricyclic compounds in the treatment of drug-resistant protozoal infections” (priority 1988, dated 1989):

Assays:
P. falciparum (FCR3) = test: [3H]-hypoxanthine incorporation, parasite growth inhibition (chloroquine-resistant strain FCR3); format: cell-based, Plasmodium falciparum
Method: P. falciparum (clone D6, chloroquine-sensitive; strain FCR3, chloroquine-resistant; and clone W2, multidrug-resistant) was grown in vitro by the method of Trager and Jensen, (1976) Science 193, 673-675. • Figure 1 illustrates the effect of desipramine on the inhibition of parasite growth. […] Isobologram analysis was carried out according to the method of Martin, et al., (1987) Science 235, 899-901 and Berenbaum, (1978) Journal of Infectious Diseases 137, 122-130. […] The X-axis is the IC₅₀ (concentration of drug which inhibits hypoxanthine incorporation by 50%) of chloroquine in the absence or presence of desipramine while the Y-axis is the IC₅₀ for desipramine in the absence or presence of chloroquine. […] Dose-response curves and IC₅₀'s for chloroquine were determined either in the absence of desipramine or in the presence of a fixed concentration of desipramine ranging from 50 ng desipramine/ml up to 500 ng desipramine/ml. […] Clinically achievable plasma concentrations of desipramine in depressed patients are in the range of 50 - 200 ng/ml. Desipramine (500 ng/ml) lowered the IC₅₀ and IC₉₀ for chloroquine by 10-fold. An IC₅₀ for a chloroquine-sensitive P. falciparum strain would be approximately 5 ng/ml. Therefore in the presence of clinically relevant concentrations of desipramine, the chloroquine-resistant P. falciparum strain is as sensitive to chloroquine as is the "sensitive" strain. • Figure 4 illustrates the ability of desipramine to enhance the potency of chloroquine against P. falciparum (W2). The experiment is identical to that of Figure 3 but a different strain of P. falciparum was used. […] The IC₅₀ and IC₉₀ for chloroquine are lowered by a factor of approximately 10. […] The anti-psycotic, chloropromazine, was substituted for desipramine in an experiment similar to that in Figure 2. • Figure 7. […] Uptake of [3H]-chloroquine was followed in clone D6 (chloroquine susceptible, ·) and in clone W2 (multidrug-resistant, o) in the absence or presence of desipramine.

[1] = tested on: chloroquine-sensitive P. falciparum strain; details: stated as 'would be approximately'; cited from earlier work
[2] = depressed patients; cited from earlier work
P. falciparum (W2) = format: cell-based, Plasmodium falciparum
Method: (§1) P. falciparum (clone D6, chloroquine-sensitive; strain FCR3, chloroquine-resistant; and clone W2, multidrug-resistant) was grown in vitro by the method of Trager and Jensen, (1976) Science 193, 673-675. • Figure 1 illustrates the effect of desipramine on the inhibition of parasite growth. […] Isobologram analysis was carried out according to the method of Martin, et al., (1987) Science 235, 899-901 and Berenbaum, (1978) Journal of Infectious Diseases 137, 122-130. […] The X-axis is the IC₅₀ (concentration of drug which inhibits hypoxanthine incorporation by 50%) of chloroquine in the absence or presence of desipramine while the Y-axis is the IC₅₀ for desipramine in the absence or presence of chloroquine. […] Dose-response curves and IC₅₀'s for chloroquine were determined either in the absence of desipramine or in the presence of a fixed concentration of desipramine ranging from 50 ng desipramine/ml up to 500 ng desipramine/ml. […] Clinically achievable plasma concentrations of desipramine in depressed patients are in the range of 50 - 200 ng/ml. Desipramine (500 ng/ml) lowered the IC₅₀ and IC₉₀ for chloroquine by 10-fold. An IC₅₀ for a chloroquine-sensitive P. falciparum strain would be approximately 5 ng/ml. […]

[3] = tested on: clone W2 (multidrug-resistant); test: Uptake of [3H]-chloroquine by parasites (clone W2); format: cell-based, P. falciparum; details: Figure 7; drug-resistant parasites, presence vs absence of desipramine
Method: as §1

[4] = tested on: chloroquine-susceptible clone D6 of P. falciparum; test: [3H]-hypoxanthine incorporation, parasite growth inhibition (chloroquine-susceptible clone D6); format: cell-based, Plasmodium falciparum; details: Figure 5, experiment similar to Figures 3 and 4
Method: as §1

[5] = Figure 3, desipramine 500 ng/ml, FCR3

## CN(C)CCCN1c2ccccc2Sc2ccc(Cl)cc21 [chloropromazine]
P. falciparum (FCR3); Figure 6, experiment similar to Figure 2, combination with chloroquine
  synergism of chloropromazine and chloroquine (isobologram): synergism

## CCN(CC)CCCC(C)Nc1ccnc2cc(Cl)ccc12 (stereo not drawn) [chloroquine]
[1]
  IC50: approximately 5 ng/ml

## CNCCCN1c2ccccc2CCc2ccccc21 [desipramine, Desipramine]
P. falciparum (FCR3); [5]
  lowering of the IC50 for chloroquine: 10 fold
  lowering of the IC90 for chloroquine: 10 fold
[2]
  Clinically achievable plasma concentrations: 50 to 200 ng/mL
P. falciparum (W2); Figure 4, at the desipramine concentrations used, without chloroquine
  effects on P. falciparum when desipramine was added alone: only slight effects
P. falciparum (W2); W2 compared with FCR3
  sensitivity of the strain to desipramine: more sensitive
[3]
  accumulation of chloroquine by parasites: increases the accumulation of chloroquine
[4]
  change of the response to chloroquine: does not change the response
